Experimental data published in US20160115542A1, “BIOMARKER OF Nrf2 ACTIVATION” (MOCHIDA PHARMACEUTICAL CO., LTD., priority 2013, published 2016).

Assays:
[1] = system: STZ-induced type 1 diabetic mice; settings: cited from earlier work
[2] = system: type 2 diabetes model rats; settings: cited from earlier work
[3] = system: HFD-induced obesity model and diabetic db/db model mice; settings: cited from earlier work
FGF21 [4] = experiment: FGF21 induction by administration of Nrf2 activator in diabetic db/db mice (plasma ELISA, hepatic qPCR); type: in vivo, mouse; settings: oral 10 mg/kg once a day for 1 week
Procedure: (§1) FGF21 plasma concentration was measured using mouse/rat FGF21 Quantikine ELISA Kit (R & D Systems, Minneapolis, Minn., USA).
(§2) Total RNA was extracted from liver tissue using Isogen RNA extract kit (Nippon Gene), and reverse-transcribed to cDNA using SuperScript III (Invitrogen). Quantitative real-time PCR (qPCR) was carried out using TaqMan probes using an ABI 7300 system (Applied Biosystems). Relative expression of genes was normalized against Hprt (hypoxanthine guanine phosphoribosyl transferase) mRNA. The following primers and probes were used: […]
Using spontaneous diabetic db/db mice, plasma FGF21 concentration and hepatic Fgf21 gene expression level were compared after administration of the Nrf2 activator. CDDO-Im was used as the Nrf2 activator, and orally administered in 10 mg/kg, once a day for 1 week. Blood and tissue were collected under isoflurane anesthesia after certain hours from the administration, and plasma FGF21 concentration and hepatic Fgf21 mRNA expression level were measured in the same manner as in the method described in (1-2).

Nqo1 = experiment: Time-course of hepatic Nqo1 gene expression after single Nrf2 activator administration; type: in vivo, mouse; settings: db/db mice, single oral administration 30 μmol/kg
Procedure: as §2
(§3) CDDO-Im was used as the Nrf2 activator, and orally administered to db/db mice in 30 μmol/kg. Blood and tissue were collected under isoflurane anesthesia after certain hours from the administration, and expression of the Nrf2 target gene Nqo1 in liver and plasma FGF21 concentration were measured in the same manner as in the method described in (1-2). The following primers and probes were used: […]

FGF21 [5] = experiment: Time-course of plasma FGF21 concentration after single Nrf2 activator administration; type: in vivo, mouse; settings: db/db mice, single oral administration 30 μmol/kg
Procedure: as §1, §3

mouse Fgf21 reporter = experiment: FGF21 promoter (mouse Fgf21 reporter) luciferase assay in Hepa1 cells; type: cell-based; settings: 100 nM, 48 hours
Procedure: Cloning of the mouse FGF21 promoter region was performed using a known technique. By using the mouse Fgf21 […] sequence as a template, a sequence (about 2.1 kbp) amplified with the primers 1.1 and 1.2 below was cloned into pGL4.15 vector (Promega) to create a mouse Fgf21 reporter vector.
The mouse Nrf2 cDNA sequence was cloned into pcDNA3.1/V5-His B vector (Invitrogen) to create a mouse Nrf2 expression vector.
Mouse hepatoma cells Hepa1c1c7 (Hepa1) were cultured in Dulbecco's Modified Eagle medium (Wako) supplemented with 10% fetal bovine serum, and 1% penicillin-streptomycin (Gibco). The mouse Fgf21 reporter vector and mouse Nrf2 expression vector, or the mouse Fgf21 reporter vector and an empty vector (mock) were transfected into Hepa1 cells using Lipofectamine 2000 Transfection Reagent (Invitrogen). The cells were cultured for 6 hours, and the medium was removed. The cells were further cultured for 48 hours after adding a medium containing 100 nM of Nrf2 activator CDDO-Im (2-cyano-3,12-dioxooleana-1,9(11)-dien-28-oic acid imidazol) or 0.1% dimethylsulfoxide (vehicle; Wako). Luciferase activity was then measured using a luminometer (Berthold).

[6] = system: high-fat-diet (HFD)-induced obesity; settings: repetitive administration; cited from earlier work
[7] = system: HFD-induced insulin resistance and obesity; settings: cited from earlier work

SMILES: C[S+]([O-])CCCCN=C=S (stereo not drawn) [sulforaphane]
- β cell injury [1]: protected β cell injury

SMILES: O=C(/C=C/c1ccc(O)c2c1[C@H](C(=O)O[C@H](Cc1ccc(O)c(O)c1)C(=O)O)[C@@H](c1ccc(O)c(O)c1)O2)O[C@H](Cc1ccc(O)c(O)c1)C(=O)O [lithospermic acid B (LAB), lithospermic acid B]
- β cell injury [2]: protected β cell injury

SMILES: COC(=O)[C@]12CCC(C)(C)C[C@H]1[C@H]1C(=O)C=C3[C@@]4(C)C=C(C#N)C(=O)C(C)(C)[C@@H]4CC[C@@]3(C)[C@]1(C)CC2 [CDDO-Me, 2-cyano-3,12-dioxooleana-1,9(11)-dien-28-oic acid methyl ester]
- blood glucose level and plasma lipid level [3]: reduce

SMILES: CC1(C)CC[C@]2(C(=O)n3ccnc3)CC[C@]3(C)[C@H](C(=O)C=C4[C@@]5(C)C=C(C#N)C(=O)C(C)(C)[C@@H]5CC[C@]43C)[C@@H]2C1 [CDDO-Im, 1-[2-cyano-3,12-dioxooleana-1,9(11)-dien-28-oyl]imidazole]
- induction of hepatic FGF21 gene expression level in Nrf2 gene knockout db/db mice (FGF21 [4]; Nrf2 gene knockout db/db mice): abolished
- induction of plasma FGF21 concentration in Nrf2 gene knockout db/db mice (FGF21 [4]; Nrf2 gene knockout db/db mice): abolished
- hepatic FGF21 gene expression level (FGF21 [4]; db/db mice, vs vehicle): significantly increased
- plasma FGF21 concentration (FGF21 [4]; db/db mice, vs vehicle): significantly increased
- Nqo1 gene expression in liver (Nqo1): increased
- time for which increased hepatic Nqo1 expression level was sustained after administration (Nqo1): 48 h
- plasma FGF21 concentration (FGF21 [5]): increased
- time postdose until which increased plasma FGF21 concentration was maintained (FGF21 [5]): 48 h
- luciferase activity enhancement compared with the vehicle (mouse Fgf21 reporter; Fgf21 reporter + empty vector (mock)): about 2 fold
- luciferase activity with transfection of mouse Nrf2 expression vector and addition of compound (mouse Fgf21 reporter; Fgf21 reporter + mouse Nrf2 expression vector): further increased
- high-fat-diet (HFD)-induced obesity [6]: prevents

SMILES: Cc1c(-c2cnccn2)ssc1=S [oltipraz]
- HFD-induced insulin resistance and obesity [7]: attenuates
